The target of one assay is T1, Adrenergic β2 (Homo sapiens, UniProt P07550).
T1 construct: Adherent H292 cells are removed from tissue culture flasks by treatment with Accutase™ cell detachment solution; endogenous in cells; host or cells: H292 cells
Nature of the assay: Adrenergic β2 mediated cAMP production in H292 cells (AlphaScreen), concentration response. The class given is cell-based. Particulars: for EC50: 60 min, 300 μM rolipram, read-out: β2 pEC50 (converted); for β2 Intrinsic Activity: fraction relative to the maximum activity determined for formoterol. The protocol: Assay for Adrenergic 132 Mediated cAMP Production
H292 cells are grown in 225 cm2 flasks incubator at 37° C., 5% CO2 in RPMI medium containing 10% (v/v) FBS (foetal bovine serum) and 2 mM L-glutamine.
Adherent H292 cells re removed from tissue culture flasks by treatment with Accutase™ cell detachment solution for 15 minutes. Flasks are incubated for 15 minutes in a humidified incubator at 37° C., 5% CO2. Detached cells are re-suspended in RPMI media (containing 10% (v/v) FBS and 2 mM L-glutamine) at 0.1×10^6 cells per mL. 10000 cells in 100 μl, are added to each well of a tissue-culture-treated 96-well plate and the cells incubated overnight in a humidified incubator at 37° C., 5% CO2. The culture media is removed and cells are washed twice with 100 μL assay buffer and replaced with 50 μl assay buffer (HBSS solution containing 10 mM HEPES pH7.4 and 5 mM glucose). Cells are rested at room temperature for 20 minutes after which time 25 μl of rolipram (1.2 mM made up in assay buffer containing 2.4% (v/v) dimethylsulphoxide) is added. Cells are incubated with rolipram for 10 minutes after which time test compounds are added and the cells are incubated for 60 minutes at room temperature. The final rolipram concentration in the assay is 300 μM and final vehicle concentration is 1% (v/v) dimethylsulphoxide. The reaction is stopped by removing supernatants, washing once with 100 μL assay buffer and replacing with 50 μL lysis buffer. The cell monolayer is frozen at −80° C. for 30 minutes (or overnight).
AlphaScreen™ cAMP detection
The concentration of cAMP (cyclic adenosine monophosphate) in the cell lysate is determined using AlphaScreen™ methodology. The frozen cell plate is thawed for 20 minutes on a plate shaker then 10 μL of the cell lysate is transferred to a 96-well white plate. 40 μL of mixed AlphaScreen™ detection beads pre-incubated with biotinylated cAMP, is added to each well and the plate incubated at room temperature for 3 hours in the dark. The AlphaScreen™ signal is measured using an EnVision spectrophotometer (Perkin-Elmer Inc.) with the recommended manufacturer's settings. cAMP concentrations are determined by reference to a calibration curve determined in the same experiment using standard cAMP concentrations. Concentration response curves for agonists are constructed and data is fitted to a four parameter logistic equation to determine both the pEC50 and Intrinsic Activity. Intrinsic Activity is expressed as a fraction relative to the maximum activity determined for formoterol in each experiment.
In general terms: Changes in cAMP serve as a functional read-out for many G protein-coupled receptors.

In assay [1] the target is T2, human muscarinic acetylcholine M3 receptor (Homo sapiens, UniProt P20309).
T2 construct: expressed in transfected cells; host or cells: CHO-K1 (Chinese Hamster Ovary) cell membranes
T2 sequence (P20309 whole entry): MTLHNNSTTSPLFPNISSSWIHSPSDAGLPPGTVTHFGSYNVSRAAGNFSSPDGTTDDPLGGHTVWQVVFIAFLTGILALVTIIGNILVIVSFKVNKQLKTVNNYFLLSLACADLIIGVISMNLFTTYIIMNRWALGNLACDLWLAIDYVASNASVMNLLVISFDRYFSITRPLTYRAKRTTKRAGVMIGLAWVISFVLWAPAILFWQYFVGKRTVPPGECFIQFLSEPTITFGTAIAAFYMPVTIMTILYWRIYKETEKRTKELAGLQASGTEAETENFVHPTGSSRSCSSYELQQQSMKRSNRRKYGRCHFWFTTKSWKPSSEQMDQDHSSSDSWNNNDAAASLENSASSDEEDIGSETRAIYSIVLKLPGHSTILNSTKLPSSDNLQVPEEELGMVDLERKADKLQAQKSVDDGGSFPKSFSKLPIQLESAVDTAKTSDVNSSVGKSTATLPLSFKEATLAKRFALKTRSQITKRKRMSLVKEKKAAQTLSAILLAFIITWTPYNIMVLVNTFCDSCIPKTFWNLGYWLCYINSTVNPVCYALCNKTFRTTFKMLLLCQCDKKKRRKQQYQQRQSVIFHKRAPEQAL
The assay is described as follows: Muscarinic 3 receptor binding assay ([3H]NMS competition, SPA), pIC50. As to conditions: [3H]NMS 0.1 nM, CHO-K1 cell membranes expressing human M3 receptor. How it is done:
Muscarinic 3 Receptor Binding Assay
The affinity (pIC50) of compounds binding to the M3 receptor is determined by competition binding of [^3H]N-methyl scopolamine (NMS) to CHO-K1 (Chinese Hamster Ovary) cell membranes expressing the human muscarinic acetylcholine M3 receptor (M3-ACh) in a scintillation proximity assay (SPA) format.
SPA beads are precoated with membranes and then incubated at 2 mg of beads per well with serial dilutions of compounds of the invention, [^3H]NMS at 0.1 nM, quarter Kd (experimentally determined dissociation constant) and assay buffer (20 mM HEPES pH 7.4 containing 5 mM MgCl2 and 0.1% (w/v) bovine serum albumin). The assay is conducted in a final volume of 200 μL, in the presence of 1% (v/v) dimethyl sulphoxide (DMSO). Total binding of [^3H]NMS is determined in the absence of competing compound and non-specific binding of [^3H]NMS is determined in the presence of 1 μM atropine. The plates are incubated for 16 hours at room temperature and then read on Wallac Microbeta™ using a normalised ^3H protocol. The pIC50, defined as the negative logarithm of the molar concentration of compound required for 50% reduction in specific [^3H]-NMS binding, is determined.

Structures can show the parent of a compound that is named as a salt.

T1 sequence (P07550 whole entry): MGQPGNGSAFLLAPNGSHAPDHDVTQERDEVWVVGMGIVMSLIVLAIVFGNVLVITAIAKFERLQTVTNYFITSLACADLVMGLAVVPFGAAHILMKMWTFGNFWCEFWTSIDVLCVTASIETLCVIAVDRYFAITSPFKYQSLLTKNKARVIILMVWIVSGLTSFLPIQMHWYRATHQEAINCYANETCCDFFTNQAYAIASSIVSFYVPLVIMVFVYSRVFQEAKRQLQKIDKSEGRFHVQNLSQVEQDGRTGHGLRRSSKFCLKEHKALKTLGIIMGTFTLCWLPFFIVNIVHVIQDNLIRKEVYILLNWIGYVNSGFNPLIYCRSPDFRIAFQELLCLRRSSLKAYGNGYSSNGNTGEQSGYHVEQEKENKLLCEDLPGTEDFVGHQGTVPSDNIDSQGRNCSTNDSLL

By IC50 is commonly meant the concentration that gives 50% inhibition. Higher therefore signals a need for much substance. Consider `CCN(CCNCCc1ccc(O)c2[nH]c(=O)sc12)C(=O)CCOCCc1ccc(CCN2CCC3(CC2)CN(C(=O)c2csc(C(C)C)n2)CCO3)cc1` [Example 1, N-Ethyl-N-(2-(2-(4-hydroxy-2-oxo-2,3-dihydrobenzo[d]thiazol-7-yl)ethylamino)ethyl)-3-(4-(2-(4-(2-isopropylthiazole-4-carbonyl)-1-oxa-4,9-diazaspiro[5.5]undecan-9-yl)ethyl)phenethoxy)propanamide ditrifluoroacetate], for which, at Adrenergic β2, the EC50 was 31.6 nM and the “β2 Intrinsic Activity” value is listed as 0.7. The compound further gave a concentration for half-maximal inhibition (IC50) in assay [1] of 2 nM.

Consider `CC(C)c1nc(C(=O)N2CCOC3(CCN(CCc4ccc(CCOCCC(=O)N(CCNCCc5ccc(O)c6c5OCC(=O)N6)C5CCCCC5)cc4)CC3)C2)cs1` [Example 2, N-Cyclohexyl-N-(2-(2-(5-hydroxy-3-oxo-3,4-dihydro-2H-benzo[b][1,4]oxazin-8-yl)ethylamino)ethyl)-3-(4-(2-(4-(2-Isopropylthiazole-4-carbonyl)-1-oxa-4,9-diazaspiro[5.5]undecan-9-371)ethyl)phenethoxy)propanamide ditrifluoroacetate], for which, at Adrenergic β2, the EC50 was 31.6 nM and the “β2 Intrinsic Activity” value came out at 0.9. For the same compound, the half-inhibitory concentration (IC50) in assay [1] is 1 nM.

On to `CCCN(CCNCCc1ccc(O)c2[nH]c(=O)sc12)C(=O)CCOCCc1ccc(CCN2CCC3(CC2)CN(C(=O)c2csc(CC)n2)CCO3)cc1` [Example 3, 3-(4-(2-(4-(2-Ethylthiazole-4-carbonyl)-1-oxa-4,9-diazaspiro[5.5]undecan-9-yl)ethyl)phenethoxy)-N-(2-(2-(4-hydroxy-2-oxo-2,3-dihydrobenzo[d]thiazol-7-yl)ethylamino)ethyl)-N-propylpropanamide ditrifluoroacetate], for which, at Adrenergic β2, the EC50 was 200 nM and the “β2 Intrinsic Activity” value was determined as 1.0. In assay [1], this compound had an IC50 of 1 nM.

On to `CCCCN(CCNCCc1ccc(O)c2c1OCC(=O)N2)C(=O)CCOCCc1ccc(CCN2CCC3(CC2)CN(C(=O)c2csc(C(C)C)n2)CCO3)cc1` [Example 4, N-Butyl-N-(2-(2-(5-hydroxy-3-oxo-3,4-dihydro-2H-benzo[b][1,4]oxazin-8-yl)ethylamino)ethyl)-3-(4-(2-(4-(2-isopropylthiazole-4-carbonyl)-1-oxa-4,9-diazaspiro[5.5]undecan-9-yl)ethyl)phenethoxy)propanamide ditrifluoroacetate], for which, at Adrenergic β2, the EC50 is 25.1 nM and the “β2 Intrinsic Activity” value was determined as 0.8. Moreover, the IC50 in assay [1] is 0.794 nM.

Turning to `Cc1nc(C(=O)N2CCOC3(CCN(CCc4ccc(CCOCCC(=O)N(CCNCCc5ccc(O)c6c5OCC(=O)N6)C5CCCCCC5)cc4)CC3)C2)cs1` [Example 5, N-Cycloheptyl-N-(2-(2-(5-hydroxy-3-oxo-3,4-dihydro-2H-benzo[b][1,4]oxazin-8-yl)ethylamino)ethyl)-3-(4-(2-(4-(2-methylthiazole-4-carbonyl)-1-oxa-4,9-diazaspiro[5.5]undecan-9-yl)ethyl)phenethoxy)propanamide ditrifluoroacetate], on Adrenergic β2, the EC50 is 20 nM and the “β2 Intrinsic Activity” value was 0.9. The IC50 in assay [1] was 0.2 nM.

For the compound `CCCC[C@@H](C)N(CCNCCc1ccc(O)c2c1OCC(=O)N2)C(=O)CCOCCc1ccc(CCN2CCC3(CC2)CN(C(=O)c2csc(C)n2)CCO3)cc1` [Example 6, (R)—N-(Hexan-2-yl)-N-(2-(2-(5-hydroxy-3-oxo-3,4-dihydro-2H-benzo[b][1,4]oxazin-8-yl)ethylamino)ethyl)-3-(4-(2-(4-(2-methylthiazole-4-carbonyl)-1-oxa-4,9-diazaspiro[5.5]undecan-9-yl)ethyl)phenethoxy)propanamide ditrifluoroacetate], at Adrenergic β2, the EC50 was 31.6 nM and the “β2 Intrinsic Activity” value was found to be 1.0. The same compound had an IC50 in assay [1] of 0.1 nM.

For the compound `CC(C)c1nc(C(=O)N2CCOC3(CCN(Cc4cccc(CCOCCC(=O)N(CCNCCc5ccc(O)c6c5OCC(=O)N6)C5CCCCCC5)c4F)CC3)C2)cs1` [Example 7, N-Cycloheptyl-3-(2-fluoro-3-((4-(2-isopropylthiazole-4-carbonyl)-1-oxa-4,9-diazaspiro[5.5]undecan-9-yl)methyl)phenethoxy)-N-(2-(2-(5-hydroxy-3-oxo-3,4-dihydro-2H-benzo[b][1,4]oxazin-8-yl)ethylamino)ethyl)propanamide ditrifluoroacetate], on Adrenergic β2, the EC50 is 39.8 nM and the “β2 Intrinsic Activity” value came to 1.0. Besides, the IC50 in assay [1] is 0.631 nM.

On to `CC(C)c1nc(C(=O)N2CCOC3(CCN(Cc4cccc(CCOCCC(=O)N(CCNCCc5ccc(O)c6c5OCC(=O)N6)Cc5ccccc5)c4F)CC3)C2)cs1` [Example 8, N-Benzyl-3-(2-fluoro-3-((4-(2-isopropylthiazole-4-carbonyl)-1-oxa-4,9-diazaspiro[5.5]undecan-9-yl)methyl)phenethoxy)-N-(2-(2-(5-hydroxy-3-oxo-3,4-dihydro-2H-benzo[b][1,4]oxazin-8-yl)ethylamino)ethyl)propanamide ditrifluoroacetate], for which, on Adrenergic β2, the EC50 is 39.8 nM and the “β2 Intrinsic Activity” value amounted to 1.1. In assay [1], this compound had an IC50 of 0.251 nM.

Regarding `CCC(CC)c1nc(C(=O)N2CCOC3(CCN(Cc4cccc(CCOCCC(=O)N(CC)CCNCCc5ccc(O)c6c5OCC(=O)N6)c4F)CC3)C2)cs1` [Example 9, N-Ethyl-3-(2-fluoro-3-((4-(2-(pentan-3-yl)thiazole-4-carbonyl)-1-oxa-4,9-diazaspiro[5.5]undecan-9-yl)methyl)phenethoxy)-N-(2-(2-(5-hydroxy-3-oxo-3,4-dihydro-2H-benzo[b][1,4]oxazin-8-yl)ethylamino)ethyl)propanamide ditrifluoroacetate], at Adrenergic β2, the EC50 was 31.6 nM and the “β2 Intrinsic Activity” value is 0.8. Besides, the IC50 in assay [1] is 0.501 nM.

Take `CCN(CCNCCc1ccc(O)c2[nH]c(=O)sc12)C(=O)CCOCCc1cccc(CN2CCC3(CC2)CN(C(=O)c2csc(C(C)C)n2)CCO3)c1F` [Example 10, N-Ethyl-3-(2-fluoro-3-((4-(2-isopropylthiazole-4-carbonyl)-1-oxa-4,9-diazaspiro[5.5]undecan-9-yl)methyl)phenethoxy)-N-(2-(2-(4-hydroxy-2-oxo-2,3-dihydrobenzo[d]thiazol-7-yl)ethylamino)ethyl)propanamide ditrifluoroacetate]: on Adrenergic β2, the EC50 is 31.6 nM and the “β2 Intrinsic Activity” value stood at 0.8. Moreover, the IC50 in assay [1] was 0.631 nM.

Turning to `CC(C)c1nc(C(=O)N2CCOC3(CCN(Cc4cccc(CCOCCC(=O)N(CCNCCc5ccc(O)c6[nH]c(=O)sc56)C5CCOCC5)c4F)CC3)C2)cs1` [Example 11, 3-(2-Fluoro-3-((4-(2-isopropylthiazole-4-carbonyl)-1-oxa-4,9-diazaspiro[5.5]undecan-9-yl)methyl)phenethoxy)-N-(2-(2-(4-hydroxy-2-oxo-2,3-dihydrobenzo[d]thiazol-7-yl)ethylamino)ethyl)-N-(tetrahydro-2H-pyran-4-yl)propanamide ditrifluoroacetate], at Adrenergic β2, the EC50 was 79.4 nM and the “β2 Intrinsic Activity” value was 1.1. This compound gave an IC50 in assay [1] of 0.316 nM.

For `CCc1nc(C(=O)N2CCOC3(CCN(Cc4cccc(CCOCCC(=O)N(CCNCCc5ccc(O)c6c5OCC(=O)N6)C5CCCC5)c4Cl)CC3)C2)cs1` [Example 33a, 3-(2-chloro-3-((4-(2-ethylthiazole-4-carbonyl)-1-oxa-4,9-diazaspiro[5.5]undecan-9-yl)methyl)phenethoxy)-N-cyclopentyl-N-(2-(2-(5-hydroxy-3-oxo-3,4-dihydro-2H-benzo[b][1,4]oxazin-8-yl)ethylamino)ethyl)propanamide, sulphate salt], the half-inhibitory concentration (IC50) in assay [1] was 0.501 nM.

The record behind these values is US8476265B2, “Compounds-801” (AstraZeneca AB, priority 2010, dated 2013).
